Experimental findings from ChEMBL document CHEMBL1201862, “PubChem BioAssay data set” (2004) are described below.

Broadly, the GI50 is the concentration giving 50% growth inhibition.

Among the test systems are SNB-75; OVCAR-5; ACHN; M14; SF-295; NCI-H226; SK-MEL-5; HT-29; SF-268; SF-539; HL-60; OVCAR-8; TK-10; OVCAR-4; CAKI-1; HCT-116; NCI-H522; NCI-H460.
Holding throughout (assay): DTP human tumour cell line panel, 48 h

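Five concentrations, 48 hours, 96-well plates. GI50 marks 50% less growth.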 Active and inactive are the calls of the source. Rule as the data show it: active = GI50 up to about 1.1 µM and inactive = higher.

As to `O=C1C(c2ccccc2)=[N+]([O-])c2cc([N+](=O)[O-])c(/C(Cl)=C/c3ccccc3)cc21`, the GI50 with SNB-75 was 31.4 µM (inactive); with OVCAR-5, 31.2 µM (inactive); with ACHN, 24.5 µM (inactive); in the experiment with M14, 16 µM (inactive); in the experiment with SF-295, 53.3 µM (inactive); in the experiment on NCI-H226, 31.2 µM (inactive). Besides, the GI50 in the experiment with SK-MEL-5 was 20.4 µM (inactive); in the experiment with HT-29, 22.3 µM (inactive); in the experiment with SF-268, 35.2 µM (inactive); in the experiment on SF-539, 23.8 µM (inactive); in the experiment with HL-60, 4.06 µM (inactive); with OVCAR-8 it was 16.1 µM (inactive). Further, the figures for the GI50 with TK-10 and with OVCAR-4 were 33.7 µM (inactive) and 13.1 µM (inactive), respectively.

As to `COc1cccc(NC(=O)CC(=O)n2nc(C)c(/N=N/c3ccccc3)c2C)c1`, the GI50 is 47.8 µM (inactive) with SNB-75; > 100 µM (inactive) in the experiment on CAKI-1; > 100 µM (inactive) with ACHN; > 100 µM (inactive) in the experiment on M14; > 100 µM (inactive) in the experiment on SF-295; 28.5 µM (inactive) in the experiment with NCI-H226. For the same compound, the GI50 in the experiment with SK-MEL-5 is 76.4 µM (inactive); in the experiment on HCT-116, > 100 µM (inactive); with NCI-H522, > 100 µM (inactive); in the experiment with HT-29 it was > 100 µM (inactive); in the experiment with SF-268 it was > 100 µM (inactive); with SF-539, > 100 µM (inactive). Besides, the GI50 is > 100 µM (inactive) in the experiment on OVCAR-8, 85.7 µM (inactive) with TK-10 and > 100 µM (inactive) in the experiment on OVCAR-4.

As for `COC(=O)c1ccc(/N=N/N(C)CO)cc1`, the GI50 with SNB-75 is 27.7 µM (inactive); in the experiment with OVCAR-5 it was > 100 µM (inactive); in the experiment on ACHN it was 80.2 µM (inactive); in the experiment on M14, 71.1 µM (inactive); in the experiment with NCI-H460 it was > 100 µM (inactive); in the experiment with SF-295, 78 µM (inactive). Besides, the GI50 with NCI-H226 is > 100 µM (inactive); with SK-MEL-5 it was > 100 µM (inactive); in the experiment with HCT-116 it was > 100 µM (inactive); in the experiment with NCI-H522 it was > 100 µM (inactive); with HT-29 it was > 100 µM (inactive); in the experiment on SF-539, 57.4 µM (inactive). Moreover, the GI50 in the experiment with HL-60 was > 100 µM (inactive); in the experiment with OVCAR-8 it was 83.2 µM (inactive); with TK-10, > 100 µM (inactive); with OVCAR-4 it was 55.8 µM (inactive).

For the compound `C#CCCCCC#CC1CCCC1C1=CC(=O)c2ccccc21` (configuration not stated), the GI50 with SNB-75 is 5.45 µM (inactive); with OVCAR-5, 11.5 µM (inactive); in the experiment on ACHN, 6.9 µM (inactive); in the experiment with M14 it was 5.07 µM (inactive); in the experiment on NCI-H460 it was 15.3 µM (inactive); with SF-295, 5.25 µM (inactive). The GI50 is 14.5 µM (inactive) with NCI-H226; 7.67 µM (inactive) in the experiment on SK-MEL-5; 1.47 µM (inactive) in the experiment on HCT-116; 7.93 µM (inactive) in the experiment with NCI-H522; 4.5 µM (inactive) in the experiment with HT-29; 3.32 µM (inactive) with SF-268. Besides, the GI50 in the experiment with SF-539 was 8.93 µM (inactive); in the experiment with HL-60, 1.33 µM (inactive); in the experiment with OVCAR-8, 1.66 µM (inactive); with TK-10 it was 20.3 µM (inactive); in the experiment on OVCAR-4, 10.3 µM (inactive).

For the compound `COC(=O)C12CC(c3ccccc31)C1C(=O)OC(=O)C12` (configuration not stated), the GI50 was 17.5 µM (inactive) in the experiment on SNB-75; > 100 µM (inactive) in the experiment on OVCAR-5; > 100 µM (inactive) in the experiment with ACHN; > 100 µM (inactive) with M14; > 100 µM (inactive) in the experiment with NCI-H460; > 100 µM (inactive) in the experiment on SF-295. Besides, the GI50 with SK-MEL-5, with HCT-116, with NCI-H522, with HT-29, in the experiment on SF-268 and in the experiment on SF-539 was > 100 µM (inactive) each time. For the same compound, the GI50 in the experiment on HL-60, in the experiment with OVCAR-8, in the experiment on TK-10 and in the experiment with OVCAR-4 was > 100 µM (inactive) in each case.

For `COC(c1cccc(C(O)(C(F)(F)F)C(F)(F)F)c1)(C(F)(F)F)C(F)(F)F`, the GI50 with SNB-75 was 17.5 µM (inactive); in the experiment with CAKI-1 it was 24.4 µM (inactive); with OVCAR-5 it was 18.4 µM (inactive); in the experiment with ACHN, 15.8 µM (inactive); in the experiment on M14, 18.7 µM (inactive); in the experiment on NCI-H460 it was 18.3 µM (inactive). Further, the GI50 was 15.7 µM (inactive) in the experiment on SF-295; 18.2 µM (inactive) in the experiment on NCI-H226; 16.9 µM (inactive) with HCT-116; 13.5 µM (inactive) in the experiment with NCI-H522; 17.5 µM (inactive) in the experiment with HT-29; 23.7 µM (inactive) with SF-268. Further, the GI50 was 19.2 µM (inactive) in the experiment on SF-539, 24.6 µM (inactive) in the experiment on OVCAR-8, 22.1 µM (inactive) in the experiment with TK-10 and 16.7 µM (inactive) in the experiment with OVCAR-4.

For `Cn1c(=O)nc2n(-c3ccc(Br)cc3)c3ccccc3nc-2c1=O`, the GI50 in the experiment on SNB-75 was 4.65 µM (inactive); with CAKI-1 it was 4.86 µM (inactive); with OVCAR-5, 13.6 µM (inactive); in the experiment with ACHN, 0.543 µM (active); in the experiment with M14, 3.75 µM (inactive); in the experiment on NCI-H460, 1.82 µM (inactive). In addition, the GI50 is 3.66 µM (inactive) in the experiment on SF-295; 11 µM (inactive) in the experiment with NCI-H226; 1.77 µM (inactive) in the experiment with SK-MEL-5; 4.11 µM (inactive) in the experiment with HCT-116; 4.39 µM (inactive) in the experiment on NCI-H522; 2.29 µM (inactive) with HT-29. Further, the GI50 with SF-268 was 11.3 µM (inactive); in the experiment with SF-539, 5.85 µM (inactive); in the experiment with OVCAR-8, 3.38 µM (inactive); with TK-10, 8.93 µM (inactive); in the experiment with OVCAR-4, 3.51 µM (inactive).

Consider `Cc1nc(=O)n2c(c1C(=O)Nc1ccc(Cl)cc1)NCCC2`, for which the GI50 in the experiment with CAKI-1, in the experiment with OVCAR-5, in the experiment on ACHN, in the experiment with M14, with NCI-H460 and in the experiment on SF-295 was > 100 µM (inactive) in each case. Also, the GI50 with NCI-H226 was > 100 µM (inactive); in the experiment with HCT-116, > 100 µM (inactive); in the experiment on NCI-H522 it was 2.97 µM (inactive); in the experiment with HT-29 it was > 100 µM (inactive); in the experiment with SF-268 it was > 100 µM (inactive); with SF-539, > 100 µM (inactive). Moreover, the GI50 with HL-60, in the experiment with OVCAR-8, with TK-10 and with OVCAR-4 was > 100 µM (inactive) in each case.

Regarding `O=c1[nH]cc(COCC(F)(F)C(F)(F)C(F)(F)C(F)F)c(=O)[nH]1`, the GI50 in the experiment with SNB-75, in the experiment on CAKI-1, in the experiment on OVCAR-5, in the experiment on ACHN, with M14 and in the experiment with SF-295 was > 100 µM (inactive) each time. In addition, the GI50 in the experiment with SK-MEL-5, in the experiment with HCT-116, with NCI-H522, with HT-29, in the experiment with SF-268 and in the experiment on HL-60 was > 100 µM (inactive) each time. Also, the GI50 in the experiment with OVCAR-8 and in the experiment on TK-10 was > 100 µM (inactive) throughout.

Regarding `Cc1ccccc1NC(=O)CSc1nnc(-c2ccc(/N=C\c3ccc(Cl)cc3)cc2)o1`, the GI50 with SNB-75, in the experiment on ACHN, in the experiment with M14, in the experiment on NCI-H460, with SF-295 and in the experiment with NCI-H226 was > 100 µM (inactive) each time. The GI50 in the experiment on SK-MEL-5, in the experiment with HCT-116, in the experiment with HT-29, in the experiment on SF-268, in the experiment on HL-60 and in the experiment with OVCAR-8 was > 100 µM (inactive) throughout. For the same compound, the GI50 in the experiment on TK-10 and in the experiment on OVCAR-4 was > 100 µM (inactive) throughout.

In the case of `O=C1/C(=C/c2ccccc2)CN(C(=O)Oc2ccc(Cl)cc2)C/C1=C\c1ccccc1`, the GI50 was 4.24 µM (inactive) in the experiment with SNB-75; 10.9 µM (inactive) with OVCAR-5; 3.03 µM (inactive) in the experiment on ACHN; 1.53 µM (inactive) in the experiment on M14; 2.44 µM (inactive) in the experiment on NCI-H460; 2.23 µM (inactive) in the experiment with SF-295. The GI50 in the experiment on NCI-H226 was 5.74 µM (inactive); with SK-MEL-5 it was 1.68 µM (inactive); in the experiment on HCT-116 it was 0.239 µM (active); in the experiment on NCI-H522, 2.25 µM (inactive); in the experiment with HT-29, 1.14 µM (inactive); in the experiment on SF-268, 2.99 µM (inactive). The GI50 was 2.36 µM (inactive) with SF-539; 0.871 µM (active) with HL-60; 1.65 µM (inactive) with OVCAR-8; 5.21 µM (inactive) with TK-10; 0.887 µM (active) in the experiment with OVCAR-4.

In the case of `CC(=O)c1ccc(NC(=O)C(=O)C(C#N)CC(C)(C)C=O)cc1` (configuration not stated), the GI50 in the experiment with CAKI-1, with OVCAR-5, in the experiment on ACHN, with M14, with NCI-H460 and in the experiment on SF-295 was > 100 µM (inactive) throughout. Also, the GI50 in the experiment with NCI-H226, in the experiment on SK-MEL-5, with HCT-116, in the experiment with NCI-H522, in the experiment on HT-29 and in the experiment on SF-268 was > 100 µM (inactive) in each case. Also, the GI50 in the experiment on SF-539, in the experiment on HL-60, in the experiment on OVCAR-8, in the experiment on TK-10 and in the experiment with OVCAR-4 was > 100 µM (inactive) throughout.

For the compound `CCCCc1c2c(nc3c1CCCC3=O)CCCC2`, the GI50 with ACHN is > 100 µM (inactive); with M14, > 100 µM (inactive); in the experiment on NCI-H460 it was > 100 µM (inactive); in the experiment on SF-295 it was > 100 µM (inactive); in the experiment on NCI-H226, 18.3 µM (inactive); with SK-MEL-5, > 100 µM (inactive). The GI50 with HCT-116, with NCI-H522, with HT-29, in the experiment with SF-268, in the experiment on SF-539 and with HL-60 was > 100 µM (inactive) each time. For the same compound, the GI50 with OVCAR-8 was > 100 µM (inactive).
